The record followed here is ChEMBL document CHEMBL5465560, “Selectivity Literature for EUbOPEN Chemogenomic Library” (2024).

Test [1] concerns the target Serine/threonine-protein kinase SIK2 (Homo sapiens) (UniProt Q9H0K1). As to the kind of experiment: Selectivity interaction (Kinase panel (Z-LYTE Assay)) EUB0001632a SIK2. The note with it: at 10 µM.
The target of test [2] is T1, Phosphatidylinositol 3-kinase C2 domain-containing subunit gamma (Homo sapiens) (UniProt O75747).
T1 sequence (whole entry): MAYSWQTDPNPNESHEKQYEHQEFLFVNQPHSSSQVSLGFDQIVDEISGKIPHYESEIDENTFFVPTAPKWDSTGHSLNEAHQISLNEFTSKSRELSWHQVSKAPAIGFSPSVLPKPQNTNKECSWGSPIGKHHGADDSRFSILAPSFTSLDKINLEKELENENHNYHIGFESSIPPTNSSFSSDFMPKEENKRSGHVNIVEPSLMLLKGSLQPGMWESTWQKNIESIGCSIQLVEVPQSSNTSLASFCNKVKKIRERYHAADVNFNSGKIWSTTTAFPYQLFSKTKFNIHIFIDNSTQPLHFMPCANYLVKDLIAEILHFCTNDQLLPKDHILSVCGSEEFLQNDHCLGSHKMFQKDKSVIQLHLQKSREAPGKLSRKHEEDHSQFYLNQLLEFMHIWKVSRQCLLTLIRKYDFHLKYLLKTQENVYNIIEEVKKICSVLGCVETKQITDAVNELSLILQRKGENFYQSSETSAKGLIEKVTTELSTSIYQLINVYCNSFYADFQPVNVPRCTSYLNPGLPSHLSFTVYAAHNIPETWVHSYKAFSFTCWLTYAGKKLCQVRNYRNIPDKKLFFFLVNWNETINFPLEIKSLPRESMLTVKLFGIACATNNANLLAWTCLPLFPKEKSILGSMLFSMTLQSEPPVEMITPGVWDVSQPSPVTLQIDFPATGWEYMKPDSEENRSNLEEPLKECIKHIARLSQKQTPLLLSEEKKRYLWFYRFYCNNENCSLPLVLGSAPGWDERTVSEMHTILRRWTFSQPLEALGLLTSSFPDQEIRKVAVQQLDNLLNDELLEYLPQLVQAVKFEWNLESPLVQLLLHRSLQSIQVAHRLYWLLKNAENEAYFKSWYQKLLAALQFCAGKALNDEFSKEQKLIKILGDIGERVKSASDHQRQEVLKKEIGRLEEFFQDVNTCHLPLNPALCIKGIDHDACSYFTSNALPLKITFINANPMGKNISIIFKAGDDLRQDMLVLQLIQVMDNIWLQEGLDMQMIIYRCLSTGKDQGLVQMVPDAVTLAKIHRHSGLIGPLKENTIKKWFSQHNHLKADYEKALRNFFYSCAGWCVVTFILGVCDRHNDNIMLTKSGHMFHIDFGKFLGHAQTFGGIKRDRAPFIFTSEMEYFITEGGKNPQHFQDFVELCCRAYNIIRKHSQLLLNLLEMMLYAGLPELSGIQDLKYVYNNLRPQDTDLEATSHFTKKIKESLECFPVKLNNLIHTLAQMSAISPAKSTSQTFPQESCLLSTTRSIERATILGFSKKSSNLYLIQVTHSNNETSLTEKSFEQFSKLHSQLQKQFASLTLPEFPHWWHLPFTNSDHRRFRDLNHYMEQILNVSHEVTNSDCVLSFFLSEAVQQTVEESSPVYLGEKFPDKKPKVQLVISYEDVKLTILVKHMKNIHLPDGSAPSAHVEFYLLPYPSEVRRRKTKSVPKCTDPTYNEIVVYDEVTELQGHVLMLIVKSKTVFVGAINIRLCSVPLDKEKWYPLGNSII
As to the kind of experiment: Selectivity interaction (KinomeScan (DiscoverX)) EUB0000595a PIK3C2G. The following applies: at 10 µM.

The target of test [3] is T2, TGF-beta receptor type-1 (Homo sapiens) (UniProt P36897).
T2 sequence (whole entry): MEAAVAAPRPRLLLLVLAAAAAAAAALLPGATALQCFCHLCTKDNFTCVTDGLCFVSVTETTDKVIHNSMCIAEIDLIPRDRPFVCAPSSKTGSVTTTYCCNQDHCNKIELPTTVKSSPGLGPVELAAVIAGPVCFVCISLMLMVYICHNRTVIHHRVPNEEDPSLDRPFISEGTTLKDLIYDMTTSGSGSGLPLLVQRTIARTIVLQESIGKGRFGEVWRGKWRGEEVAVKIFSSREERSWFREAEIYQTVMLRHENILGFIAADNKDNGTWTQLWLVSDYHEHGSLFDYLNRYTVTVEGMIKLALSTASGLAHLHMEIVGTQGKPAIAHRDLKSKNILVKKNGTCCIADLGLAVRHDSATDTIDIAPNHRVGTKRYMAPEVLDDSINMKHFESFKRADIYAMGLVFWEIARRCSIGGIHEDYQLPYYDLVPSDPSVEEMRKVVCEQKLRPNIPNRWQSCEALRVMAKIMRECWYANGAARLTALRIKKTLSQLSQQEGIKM
As to the kind of experiment: Selectivity interaction (KinomeScan (DiscoverX)) EUB0000595a TGFBR1. The following applies: at 10 µM.

For test [4], the target named is BDNF/NT-3 growth factors receptor (Homo sapiens) (UniProt Q16620). As to the kind of experiment: Selectivity interaction (KinomeScan (DiscoverX)) EUB0000695a NTRK2. The note with it: at 100 nM.
Test [5] has as its target Interleukin-1 receptor-associated kinase 1 (Homo sapiens) (UniProt P51617). As to the kind of experiment: Selectivity interaction (KinomeScan (DiscoverX)) EUB0000607a IRAK1. The following applies: at 10 µM.
The target of test [6] is Cyclin-dependent kinase-like 1 (Homo sapiens) (UniProt Q00532). As to the kind of experiment: Selectivity interaction (KinomeScan (DiscoverX)) EUB0000045b CDKL1.
For test [7], the target named is T3, Histone-lysine N-methyltransferase SETD7 (Homo sapiens) (UniProt Q8WTS6).
T3 sequence (whole entry): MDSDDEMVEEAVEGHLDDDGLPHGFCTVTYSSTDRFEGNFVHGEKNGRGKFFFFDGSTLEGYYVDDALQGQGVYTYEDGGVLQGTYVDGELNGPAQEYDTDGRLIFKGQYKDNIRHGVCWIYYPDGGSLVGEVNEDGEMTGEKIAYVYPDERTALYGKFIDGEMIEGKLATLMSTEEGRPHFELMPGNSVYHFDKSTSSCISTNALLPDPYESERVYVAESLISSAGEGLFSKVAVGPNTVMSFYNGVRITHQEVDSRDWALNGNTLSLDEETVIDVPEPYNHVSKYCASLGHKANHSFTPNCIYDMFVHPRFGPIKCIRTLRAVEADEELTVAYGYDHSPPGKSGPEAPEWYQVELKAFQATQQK
As to the kind of experiment: Selectivity interaction (Transferase panel (protein, RNA, and DNA methyltransferases. and EP300 (acetyltransferase))) EUB0000270b SETD7.

Cyclin-dependent kinase-like 1 (Homo sapiens), sequence (Q00532 whole entry): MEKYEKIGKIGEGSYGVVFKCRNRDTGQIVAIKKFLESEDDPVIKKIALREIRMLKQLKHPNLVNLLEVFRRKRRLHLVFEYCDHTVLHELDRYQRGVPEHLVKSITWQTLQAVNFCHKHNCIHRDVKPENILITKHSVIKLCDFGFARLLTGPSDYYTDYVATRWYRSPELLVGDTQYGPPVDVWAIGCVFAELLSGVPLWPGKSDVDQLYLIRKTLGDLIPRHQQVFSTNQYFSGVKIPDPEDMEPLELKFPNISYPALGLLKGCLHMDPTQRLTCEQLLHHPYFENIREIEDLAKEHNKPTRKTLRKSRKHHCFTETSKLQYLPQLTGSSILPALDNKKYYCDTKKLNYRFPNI
Interleukin-1 receptor-associated kinase 1 (Homo sapiens), sequence (P51617 whole entry, looked up): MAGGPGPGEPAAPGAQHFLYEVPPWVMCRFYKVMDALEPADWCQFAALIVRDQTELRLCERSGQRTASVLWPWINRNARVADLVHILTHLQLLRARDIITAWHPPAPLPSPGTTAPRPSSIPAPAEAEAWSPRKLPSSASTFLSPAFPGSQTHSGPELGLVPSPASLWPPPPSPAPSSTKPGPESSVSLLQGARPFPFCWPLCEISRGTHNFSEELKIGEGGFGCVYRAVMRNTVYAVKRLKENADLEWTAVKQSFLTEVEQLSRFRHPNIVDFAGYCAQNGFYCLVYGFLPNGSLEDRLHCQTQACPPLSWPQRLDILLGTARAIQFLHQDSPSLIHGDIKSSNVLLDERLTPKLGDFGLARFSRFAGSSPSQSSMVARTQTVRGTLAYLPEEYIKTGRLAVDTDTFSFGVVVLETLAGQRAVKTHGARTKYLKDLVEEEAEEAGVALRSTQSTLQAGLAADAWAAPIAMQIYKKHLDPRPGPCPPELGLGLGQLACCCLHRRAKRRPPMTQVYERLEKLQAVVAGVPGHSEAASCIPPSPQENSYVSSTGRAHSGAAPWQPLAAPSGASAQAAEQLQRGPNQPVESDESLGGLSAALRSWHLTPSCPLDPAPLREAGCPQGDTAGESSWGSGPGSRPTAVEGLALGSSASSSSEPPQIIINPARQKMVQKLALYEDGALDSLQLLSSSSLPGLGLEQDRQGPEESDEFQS
BDNF/NT-3 growth factors receptor (Homo sapiens), sequence (Q16620 32-822 limits assumed): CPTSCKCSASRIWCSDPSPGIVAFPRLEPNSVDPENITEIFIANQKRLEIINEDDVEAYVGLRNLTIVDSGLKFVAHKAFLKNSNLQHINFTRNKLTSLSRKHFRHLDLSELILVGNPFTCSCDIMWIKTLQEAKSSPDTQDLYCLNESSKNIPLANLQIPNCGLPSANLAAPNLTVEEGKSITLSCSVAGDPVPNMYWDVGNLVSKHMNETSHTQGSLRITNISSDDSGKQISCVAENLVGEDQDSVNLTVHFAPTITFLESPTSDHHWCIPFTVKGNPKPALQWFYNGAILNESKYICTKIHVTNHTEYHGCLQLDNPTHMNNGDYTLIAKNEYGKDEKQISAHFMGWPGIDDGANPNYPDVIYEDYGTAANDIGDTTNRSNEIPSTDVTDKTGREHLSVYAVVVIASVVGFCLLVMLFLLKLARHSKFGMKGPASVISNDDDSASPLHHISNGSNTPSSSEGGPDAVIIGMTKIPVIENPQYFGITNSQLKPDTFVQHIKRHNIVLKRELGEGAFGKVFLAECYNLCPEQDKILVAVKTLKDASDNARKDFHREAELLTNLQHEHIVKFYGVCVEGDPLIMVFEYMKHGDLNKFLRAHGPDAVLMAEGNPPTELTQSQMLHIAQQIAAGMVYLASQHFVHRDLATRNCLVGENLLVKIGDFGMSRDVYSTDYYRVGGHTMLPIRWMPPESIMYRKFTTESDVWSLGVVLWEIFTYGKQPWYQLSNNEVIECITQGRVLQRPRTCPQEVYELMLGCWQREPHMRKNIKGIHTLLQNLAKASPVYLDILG
Serine/threonine-protein kinase SIK2 (Homo sapiens), sequence (Q9H0K1 whole entry, looked up, the tested form may be a part): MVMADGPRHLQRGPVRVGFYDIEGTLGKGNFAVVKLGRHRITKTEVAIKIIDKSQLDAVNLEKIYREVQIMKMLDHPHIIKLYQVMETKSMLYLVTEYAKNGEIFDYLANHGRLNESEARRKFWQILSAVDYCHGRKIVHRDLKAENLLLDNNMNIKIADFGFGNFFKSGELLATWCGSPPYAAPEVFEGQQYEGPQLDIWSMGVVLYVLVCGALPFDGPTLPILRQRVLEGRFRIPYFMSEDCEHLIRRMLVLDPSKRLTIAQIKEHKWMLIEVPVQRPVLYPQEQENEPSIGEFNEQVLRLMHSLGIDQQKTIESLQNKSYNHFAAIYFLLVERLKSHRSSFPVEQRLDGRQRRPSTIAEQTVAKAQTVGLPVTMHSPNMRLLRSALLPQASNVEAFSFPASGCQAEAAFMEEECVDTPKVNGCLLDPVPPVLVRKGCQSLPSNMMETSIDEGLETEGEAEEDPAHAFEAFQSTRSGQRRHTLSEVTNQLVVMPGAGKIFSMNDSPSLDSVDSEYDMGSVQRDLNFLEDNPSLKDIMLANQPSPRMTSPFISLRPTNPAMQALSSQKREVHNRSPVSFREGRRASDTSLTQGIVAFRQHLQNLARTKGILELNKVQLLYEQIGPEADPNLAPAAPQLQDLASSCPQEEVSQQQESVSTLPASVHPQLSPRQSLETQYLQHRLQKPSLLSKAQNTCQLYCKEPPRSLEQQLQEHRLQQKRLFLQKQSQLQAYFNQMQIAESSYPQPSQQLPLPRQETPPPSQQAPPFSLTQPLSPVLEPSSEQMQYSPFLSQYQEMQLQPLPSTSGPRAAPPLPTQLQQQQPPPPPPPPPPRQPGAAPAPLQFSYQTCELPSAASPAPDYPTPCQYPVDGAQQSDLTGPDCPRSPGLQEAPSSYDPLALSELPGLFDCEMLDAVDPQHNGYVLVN

As for `Cn1cc(-n2cnc3c(NCc4nc5cc(Cl)c(Cl)cc5[nH]4)nc(N4CCOCC4)nc32)cn1`, the % of control in test [1] stood at 5.35%.
Turning to `COCC(=O)NC/C=C/c1ccc2ncnc(Nc3ccc(Oc4ccc(C)nc4)c(C)c3)c2c1` [CP-724714], the % of control stood at 24% in test [2] and 100% in test [3].
In turn, `Cc1cc(F)c(C(=O)Nc2cccc(-c3nncn3C(C)C)n2)cc1-n1cnc(C2CC2)c1` returned a % of control in test [4] of 65%.
For `CNC(=O)Nc1ccc(-c2nc(N3CC4CCC(C3)O4)c3cnn(C4CCC5(CC4)OCCO5)c3n2)cc1`, the % of control in test [5] is 100%.
Regarding `C=CC(=O)Nc1cc(-n2c(=O)ccc3cnc4ccc(-c5ccc(NS(C)(=O)=O)cc5)cc4c32)ccc1C`, the % of control stood at 100% in test [6] (at 1 µM) and 58% in test [6] (at 10 µM).
Turning to `Cc1cc(CN)cc(C)c1-c1ncn(C)c1-c1cncn1C`, the values for the % activity in test [7] (at 1 µM) and in test [7] (at 10 µM) were above 90% and above 80%, respectively.
